In US20180325157A1, “A DIETARY SUPPLEMENT COMPRISING BETA-GLUCAN AND CASEIN HYDROLSATE FOR IMPROVING HEALTH AND GROWTH PERFORMANCE IN A MAMMAL” (University College Dublin, National University of Ireland, …, priority 2015, published 2018):
Several values for one entry are separate records, joined by “and”; a condition that tells them apart may be missing. Identical values can stand only once.

Tests used:
weaning piglets = assay: Body weight and growth performance of weaned piglets over 12 days; format: in vivo, pig
From the text: This study was designed in a completely randomized block design with 5 dietary groups. The dietary groups are as follows: 1) control diet, 2) control diet+ZnO, 3) control diet+casein hydrolysate, 4) control diet+(3 glucan and 5) control diet+casein hydrolysate+β glucan. The control diet used in this study was based on previous work by Walsh et al. (2013). The levels of casein hydrolysate used were based on previous experiment and the levels of β glucan, derived from yeast (S. cerevisiae), used were based on a previous study by Sweeney et al. (2012). Diets were formulated to contain similar concentrations of digestible energy (DE) (14.5 MJ/kg) and standardized ileal digestible (SID) lysine (12.5 g/kg) contents. All amino acids requirements were met relative to SID lysine (NRC, 1998). All diets were milled on site and fed in meal form for 12 days after weaning.
Forty weaned piglets [progeny of Landrace boars×(Large White×Landrace sow)] were weighed and blocked on the basis of initial live body weight (7.3±0.2 kg) and assigned to 1 of the 5 dietary treatment groups (n=8). Piglets were weighted individually at the beginning of the experiment (day 0=day of weaning), day 6 and day 12. The piglets were housed in groups of two on fully slatted floors (1.68×1.22 m). The ambient environmental temperature within the house was thermostatically controlled at 30° C. The feed was available ad libitum and water was available via nipple drinkers. Feed was available up to the final weighing and all remaining feed was weighed back for the purpose of calculating feed efficiency.
The current study was a complete randomised design experiment and data analysed using the general linear model procedure of the Statistical Analysis Institute (SAS, 2004). The individual pen represented the experimental unit for the performance analysis. All the data were checked initially for normality using the PROC univariate procedure in SAS (2004). The microbial counts were log transformed before statistical analysis. Probability values of less than 0.05 were used as the criterion for statistical significance. Intercorrelations between cytokines and cytokine regulatory genes was analysed in a correlation matrix using PASW 18 (SPSS for Windows, […]; SPSS, Chicago, Ill.) and the Pearson's r value greater than 0.400 was considered to be positively correlated. All results are presented in the tables as least square means±standard error of the means (SEM).

Bacteroidetes = assay: qPCR of bacterial groups in digesta: Bacteroidetes; format: in vivo, pig; settings: caecal digesta, day 12
Experimental: (§1) At day 12, all the pigs were sacrificed following a lethal injection of Euthatal (pentobarbitone sodium BP-Merial Animal Ltd, Sandringham House, Essex, UK) at a rate of […] live body weight. In sterile conditions, the digestive tract was removed and tissue samples from colon were placed in sterile phosphate buffer saline (PBS) (Oxoid, Basingstoke, UK). The digesta samples were recovered aseptically from caecum and colon and transported on ice to proper storage conditions.
(§2) To evaluate the effect of feed additives on the microbiota, samples of digesta contents (approximately 10 g) were recovered from the caecum and colon of each animal in sterile conditions immediately after slaughter. […] Quantity and quality of DNA were assessed using a Nanodrop (Nanodrop, ND1000; Thermo Scientific, Wilmington, Del.).
(§3) A combined aliquot of bacterial genomic DNA from all animals were used for preparation of standard curves. […] Thermal cycling conditions used were similar to the condition described below for quantitative real-time PCR. Standard curves were subsequently generated by quantitative real-time PCR of serial dilutions of these amplicons using the same genus and species-specific primers to permit absolute quantification based on gene copy number (Lee et al., 2006). […] The dry matter (DM) of the digesta was determined after drying overnight at 103° C. […]

Bifidobacteria spp. = assay: qPCR of bacterial groups in digesta: Bifidobacteria; format: in vivo, pig; settings: day 12
Experimental: as §1, §2, §3

[1] = test system: selected panel of bacterial groups; assay: qPCR of the other selected bacterial groups in colonic digesta; format: in vivo, pig; settings: day 12
Experimental: as §1, §2, §3

IL-1α = assay: Cytokine gene expression in colonic tissue (qPCR): IL-1α; format: in vivo, porcine; settings: day 12, normalised relative quantity
Experimental: (§4) Tissue samples were collected from the mesenteric side of the colon, rinsed with ice-cold sterile phosphate-buffered saline (Oxoid, Basingstoke, UK) and stripped of overlying smooth muscle. The samples were then cut into small pieces using a sterile scalpel blade and stored in 15 ml of RNAlater™ (Applied biosystems, Foster city, CA, USA) overnight followed by storage at −20° C. prior to RNA extraction. Total RNA was extracted from the colonic tissue samples using a GenElute Mammalian Total RNA Miniprep Kit (Sigma-Aldrich Corporation, St Louis, Mo., USA) according to the manufacturer's instructions. […] The total RNA was quantified and assessed for purity using the NanoDrop-ND1000 Spectrophotometer (Thermo Fisher Scientific Inc. MA, USA). The quality of the total RNA was determined by visualizing on an ethidium bromide stained 1% agarose gel. […]
(§5) qPCR was carried out to quantify the following two sets of targets: the first set of target are a selected panel of cytokine genes; Interleukins (IL-1a, IL-1β, IL-4, IL-6, IL-8, IL-10, IL-17A, IL-21), Interferon (IFN-γ), Tumor Necrosis Factor (TNFα), Transforming growth factor (TGF-β) and Forkhead box P3 (FOXP3). […]
(§6) Mean Ct values were converted to relative quantities using the formula, Relative quantity=(PCR efficiency) ΔCt, where ΔCt is the change in the Ct values of the sample relative to the highest expression (minimum Ct value). […]

IL-1β = assay: Cytokine gene expression in colonic tissue (qPCR): IL-1β; format: in vivo, porcine; settings: day 12, normalised relative quantity
Experimental: as §4, §5, §6

IL-8 = assay: Cytokine gene expression in colonic tissue (qPCR): IL-8; format: in vivo, porcine; settings: day 12, normalised relative quantity
Experimental: as §4, §5, §6

IL-17 = assay: Cytokine gene expression in colonic tissue (qPCR): IL-17; format: in vivo, porcine; settings: day 12, normalised relative quantity
Experimental: as §4, §5, §6

TGF-β = assay: Cytokine gene expression in colonic tissue (qPCR): TGF-β; format: in vivo, porcine; settings: day 12, normalised relative quantity
Experimental: as §4, §5, §6

weaning piglet = settings: previous experiments, cited from earlier work

## [O]=[Zn] [ZnO, zinc oxide]
Weaning piglets; Day 0-12
  Gain to feed (Day 0-12): 0.26 kg/kg
  OADG (overall average daily gain) (Day 0-12): 0.10 kg/day
  OFI (overall feed intake) (Day 0-12): 0.37 kg/day
Weaning piglets; Weight 0-6
  Weight (kg) Weight 0-6: 7.53 kg
Weaning piglets; Weight 6-12 (end of experiment)
  Weight (kg) Weight 6-12: 8.64 kg and 8.64^a kg
Bacteroidetes
  abundance of Bacteroidetes copy numbers: 12.60 log10 bacteria/g DM digesta
Bifidobacteria spp.; caecal digesta
  Bifidobacteria spp. numbers: 8.94 log10 bacteria/g DM digesta
Bifidobacteria spp.; colonic digesta
  abundance of Bifidobacteria copy numbers: 8.96 log10 bacteria/g DM digesta
[1]
  bacterial copy numbers of any other bacterial group: No change
IL-1α
  IL-1α expression: 0.006 RQ
IL-1β
  IL-1β expression: 0.010 RQ
IL-8
  IL-8 expression: 0.003 RQ
IL-17
  IL-17 expression: 0.061 RQ
TGF-β
  TGF-β expression: 0.183 RQ
Weaning piglet; weaning piglet gut
  anti-inflammatory activity in the weaning piglet gut: anti-inflammatory activity
Weaning piglet; weaning piglet
  overall growth performance parameters: improved
